According to patent US8664203B2, “Thiazole derivatives and their use as P2Y12 receptor antagonists” (Actelion Pharmaceuticals Ltd., priority 2009, dated 2014):

target: T1, human P2Y12 receptor (Homo sapiens, UniProt Q9H244); test: P2Y12 receptor binding assay; details: CHO cells with recombinant expression of the human P2Y12 receptor; tritium-labeled 2-methyl-S-ADP; RT, 2 hours
T1 construct: expressed in transfected cells; host or cells: CHO cells
Description: P2Y12 Receptor Binding Assay
Chinese Hamster Ovary (CHO) cells with recombinant expression of the human P2Y12 receptor were cultured in 24 well cell-culture plates. Cells were washed three times with binding buffer (50 mM Tris pH 7.4, 100 mM NaCl, 1 mM EDTA, 0.5% BSA). The cells were then incubated with 0.5 ml per well binding buffer containing tritium-labeled 2-methyl-thio-adenosine 5′-diphosphate (2-methyl-S-ADP) (between 100′000 and 300′000 dpm per well) and various concentrations of test compounds. After incubation at RT for 2 hours, cells were washed three times with binding buffer. Then, cells were solubilized by addition of 0.5 ml solubilization buffer (SDS, NaOH, EDTA). The content of each well was then transferred into beta-counter vials and 2.0 ml of Ultima Gold Scintillation liquid was added.

T1 sequence (Q9H244 whole entry): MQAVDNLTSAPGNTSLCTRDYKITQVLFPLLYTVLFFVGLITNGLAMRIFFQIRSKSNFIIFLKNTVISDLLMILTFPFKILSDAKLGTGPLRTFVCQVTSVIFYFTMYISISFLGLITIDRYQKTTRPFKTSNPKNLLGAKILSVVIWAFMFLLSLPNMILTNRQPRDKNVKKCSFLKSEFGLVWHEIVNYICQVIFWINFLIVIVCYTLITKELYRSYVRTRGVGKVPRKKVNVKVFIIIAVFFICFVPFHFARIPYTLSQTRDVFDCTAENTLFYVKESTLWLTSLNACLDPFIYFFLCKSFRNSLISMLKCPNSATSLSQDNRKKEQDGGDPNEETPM

Row | Compound | IC50 [nM]
1 | CCOC(=O)N1CCN(C(=O)CNC(=O)c2csc(-c3ccccc3)n2)CC1 [Example 1, 4-{2-[(2-Phenyl-thiazole-4-carbonyl)-amino]-acetyl}-piperazine-1-carboxylic acid ethyl ester] | 9150
2 | CCOC(=O)N1CCN(C(=O)[C@H](CCC(=O)O)NC(=O)c2csc(-c3ccccc3)n2)CC1 [Example 2, 4-{(S)-4-Carboxy-2-[(2-phenyl-thiazole-4-carbonyl)-amino]-butyryl}-piperazine-1-carboxylic acid ethyl ester] | 246
3 | CCCCOC(=O)N1CCN(C(=O)[C@H](CCC(=O)O)NC(=O)c2csc(-c3ccccc3Oc3ccccc3)n2)CC1 [Example 3, 4-((S)-4-Carboxy-2-{[2-(2-phenoxy-phenyl)-thiazole-4-carbonyl]-amino}-butyryl)-piperazine-1-carboxylic acid butyl ester] | 1470
4 | CCCCOC(=O)N1CCN(C(=O)[C@H](CCC(=O)O)NC(=O)c2csc(-c3cccc(OC)c3)n2)CC1 [Example 4, 4-((S)-4-Carboxy-2-{[2-(3-methoxy-phenyl)-thiazole-4-carbonyl]-amino}-butyryl)-piperazine-1-carboxylic acid butyl ester] | 249
5 | CCCCOC(=O)N1CCN(C(=O)[C@H](CCC(=O)O)NC(=O)c2csc(-c3ccccc3OC)n2)CC1 [Example 5, 4-((S)-4-Carboxy-2-{[2-(2-methoxy-phenyl)-thiazole-4-carbonyl]-amino}-butyryl)-piperazine-1-carboxylic acid butyl ester] | 464
6 | CCCCOC(=O)N1CCN(C(=O)[C@H](CCC(=O)O)NC(=O)c2csc(-c3ccccc3C)n2)CC1 [Example 6, 4-{(S)-4-Carboxy-2-[(2-o-tolyl-thiazole-4-carbonyl)-amino]-butyryl}-piperazine-1-carboxylic acid butyl ester] | 334
7 | CCCCOC(=O)N1CCN(C(=O)[C@H](CP(=O)(OCC)OCC)NC(=O)c2csc(-c3ccccc3)n2)CC1 [Example 8, 4-{(R)-3-(Diethoxy-phosphoryl)-2-[(2-phenyl-thiazole-4-carbonyl)-amino]-propionyl}-piperazine-1-carboxylic acid butyl ester] | 502
8 | CCCCOC(=O)N1CCN(C(=O)[C@H](Cc2ccc(P(=O)(OCC)OCC)cc2)NC(=O)c2csc(-c3ccccc3)n2)CC1 [Example 10, 4-{(S)-3-[4-(Diethoxy-phosphoryl)-phenyl]-2-[(2-phenyl-thiazole-4-carbonyl)-amino]-propionyl}-piperazine-1-carboxylic acid butyl ester] | 635
9 | CCOC(=O)N1CCN(C(=O)[C@H](Cc2ccc(P(=O)(OCC)OCC)cc2)NC(=O)c2csc(-c3ccccc3)n2)CC1 [Example 12, 4-{(S)-3-[4-(Diethoxy-phosphoryl)-phenyl]-2-[(2-phenyl-thiazole-4-carbonyl)-amino]-propionyl}-piperazine-1-carboxylic acid ethyl ester] | 4940
10 | CCCCOC(=O)N1CCN(C(=O)[C@H](CCC(=O)OC(C)(C)C)NC(=O)c2nc(-c3ccccc3)sc2Br)CC1 [Example 14, 4-{(S)-2-[(5-Bromo-2-phenyl-thiazole-4-carbonyl)-amino]-4-tert-butoxycarbonyl-butyryl}-piperazine-1-carboxylic acid butyl ester] | 1220
11 | CCCCOC(=O)N1CCN(C(=O)[C@H](CCC(=O)O)NC(=O)c2nc(-c3ccccc3)sc2-c2ccccc2)CC1 [Example 17, 4-{(S)-4-Carboxy-2-[(2,5-diphenyl-thiazole-4-carbonyl)-amino]-butyryl}-piperazine-1-carboxylic acid butyl ester] | 43
12 | CCCCOC(=O)N1CCN(C(=O)CNC(=O)c2csc(-c3ccccc3)n2)CC1 [Example 26, 4-{2-[(2-Phenyl-thiazole-4-carbonyl)-amino]-acetyl}-piperazine-1-carboxylic acid butyl ester] | 94
13 | CCCCOC(=O)N1CCN(C(=O)CNC(=O)c2nc(-c3ccccc3)sc2NCCCOC)CC1 [Example 28, 4-(2-{[5-(3-Methoxy-propylamino)-2-phenyl-thiazole-4-carbonyl]-amino}-acetyl)-piperazine-1-carboxylic acid butyl ester] | 47
14 | CCCCOC(=O)N1CCN(C(=O)CNC(=O)c2nc(-c3ccccc3)sc2-c2cccc(F)c2)CC1 [Example 29, 4-(2-{[5-(3-Fluoro-phenyl)-2-phenyl-thiazole-4-carbonyl]-amino}-acetyl)-piperazine-1-carboxylic acid butyl ester] | 525

Now those with a lower IC50, led by results:

Row | IC50 [nM] | Compound
15 | 16 | CCCCOC(=O)N1CCN(C(=O)[C@H](CCC(=O)O)NC(=O)c2csc(-c3ccccc3)n2)CC1 [Example 7, 4-{(S)-4-Carboxy-2-[(2-phenyl-thiazole-4-carbonyl)-amino]-butyryl}-piperazine-1-carboxylic acid butyl ester]
16 | 2 | CCCCOC(=O)N1CCN(C(=O)[C@H](CP(=O)(O)O)NC(=O)c2csc(-c3ccccc3)n2)CC1 [Example 9, 4-{(R)-2-[(2-Phenyl-thiazole-4-carbonyl)-amino]-3-phosphono-propionyl}-piperazine-1-carboxylic acid butyl ester]
17 | 1 | CCCCOC(=O)N1CCN(C(=O)[C@H](Cc2ccc(P(=O)(O)O)cc2)NC(=O)c2csc(-c3ccccc3)n2)CC1 [Example 11, 4-[(S)-2-[(2-Phenyl-thiazole-4-carbonyl)-amino]-3-(4-phosphono-phenyl)-propionyl]-piperazine-1-carboxylic acid butyl ester]
18 | 2 | CCOC(=O)N1CCN(C(=O)[C@H](Cc2ccc(P(=O)(O)O)cc2)NC(=O)c2csc(-c3ccccc3)n2)CC1 [Example 13, 4-[(S)-2-[(2-Phenyl-thiazole-4-carbonyl)-amino]-3-(4-phosphono-phenyl)-propionyl]-piperazine-1-carboxylic acid ethyl ester]
19 | 41 | CCCCOC(=O)N1CCN(C(=O)[C@H](CCC(=O)O)NC(=O)c2nc(-c3ccccc3)sc2Br)CC1 [Example 15, 4-{(S)-2-[(5-Bromo-2-phenyl-thiazole-4-carbonyl)-amino]-4-carboxy-butyryl}-piperazine-1-carboxylic acid butyl ester]
20 | 7 | CCCCOC(=O)N1CCN(C(=O)[C@H](CCC(=O)O)NC(=O)c2nc(-c3ccccc3)sc2Cl)CC1 [Example 16, 4-{(S)-4-Carboxy-2-[(5-chloro-2-phenyl-thiazole-4-carbonyl)-amino]-butyryl}-piperazine-1-carboxylic acid butyl ester]
21 | 11 | CCCCOC(=O)N1CCN(C(=O)[C@H](CCC(=O)O)NC(=O)c2nc(-c3ccccc3)sc2[C@H]2C[C@@H]2COC)CC1 [Example 18, 4-((S)-4-Carboxy-2-{[5-((1S,2S)-2-methoxymethyl-cyclopropyl)-2-phenyl-thiazole-4-carbonyl]-amino}-butyryl)-piperazine-1-carboxylic acid butyl ester]
22 | 6 | CCCCOC(=O)N1CCN(C(=O)[C@H](CCC(=O)O)NC(=O)c2nc(-c3ccccc3)sc2/C=C/C(=O)O)CC1 [Example 19, 4-((S)-4-Carboxy-2-{[5-((E)-2-carboxy-vinyl)-2-phenyl-thiazole-4-carbonyl]-amino}-butyryl)-piperazine-1-carboxylic acid butyl ester]
23 | 13 | CCCCOC(=O)N1CCN(C(=O)[C@H](CCC(=O)O)NC(=O)c2nc(-c3ccccc3)sc2CCC(=O)O)CC1 [Example 20, 4-((S)-4-Carboxy-2-{[5-(2-carboxy-ethyl)-2-phenyl-thiazole-4-carbonyl]-amino}-butyryl)-piperazine-1-carboxylic acid butyl ester]
24 | 19 | CCCCOC(=O)N1CCN(C(=O)[C@H](CCC(=O)O)NC(=O)c2nc(-c3ccccc3)sc2/C=C/COC)CC1 [Example 21, 4-((S)-4-Carboxy-2-{[5-((E)-3-methoxy-propenyl)-2-phenyl-thiazole-4-carbonyl]-amino}-butyryl)-piperazine-1-carboxylic acid butyl ester]
25 | 28 | CCCCOC(=O)N1CCN(C(=O)[C@H](CCC(=O)O)NC(=O)c2nc(-c3ccccc3)sc2CCCOC)CC1 [Example 22, 4-((S)-4-Carboxy-2-{[5-(3-methoxy-propyl)-2-phenyl-thiazole-4-carbonyl]-amino}-butyryl)-piperazine-1-carboxylic acid butyl ester]
26 | 39 | CCCCOC(=O)N1CCN(C(=O)[C@H](CCC(=O)O)NC(=O)c2nc(-c3ccccc3)sc2N2CCOCC2)CC1 [Example 23, 4-{(S)-4-Carboxy-2-[(5-morpholin-4-yl-2-phenyl-thiazole-4-carbonyl)-amino]-butyryl}-piperazine-1-carboxylic acid butyl ester]
27 | 7 | CCCCOC(=O)N1CCN(C(=O)[C@H](CCC(=O)O)NC(=O)c2nc(-c3ccccc3)sc2N2CCCC2)CC1 [Example 24, 4-{(S)-4-Carboxy-2-[(2-phenyl-5-pyrrolidin-1-yl-thiazole-4-carbonyl)-amino]-butyryl}-piperazine-1-carboxylic acid butyl ester]
28 | 3 | CCCCOC(=O)N1CCN(C(=O)[C@H](CCC(=O)O)NC(=O)c2nc(-c3ccccc3)sc2N2CC[C@H](OC)C2)CC1 [Example 25, 4-((S)-4-Carboxy-2-{[5-((S)-3-methoxy-pyrrolidin-1-yl)-2-phenyl-thiazole-4-carbonyl]-amino}-butyryl)-piperazine-1-carboxylic acid butyl ester]
29 | 34 | CCCCOC(=O)N1CCN(C(=O)CNC(=O)c2nc(-c3ccccc3)sc2NCCCO)CC1 [Example 27, 4-(2-{[5-(3-Hydroxy-propylamino)-2-phenyl-thiazole-4-carbonyl]-amino}-acetyl)-piperazine-1-carboxylic acid butyl ester]
